Assay results from ChEMBL document CHEMBL1201862, “PubChem BioAssay data set” (2004).
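Protocol summary: plate cells (96-well), add compound at 5 concentrations, incubate 48 h, interpolate endpoints linearly. GI50 is the concentration that inhibits growth by half.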 Activity calls are given as the source filed them. Rule as the data show it: active = GI50 up to about 1.1 µM and inactive = higher.

Key:
Experiment in all cases: DTP human tumour cell line panel, 48 h
[1] = test system: 786-0
[2] = test system: A498
[3] = test system: A549
[4] = test system: ACHN
[5] = test system: BT-549
[6] = test system: CAKI-1
[7] = test system: CCRF-CEM
[8] = test system: COLO 205
[9] = test system: DU-145
[10] = test system: EKVX
[11] = test system: HCC 2998
[12] = test system: HCT-116
[13] = test system: HCT-15
[14] = test system: HL-60
[15] = test system: HOP-62
[16] = test system: HOP-92
[17] = test system: HT-29
[18] = test system: Hs-578T
[19] = test system: IGROV-1
[20] = test system: K562
[21] = test system: KM12
[22] = test system: LOX IMVI
[23] = test system: M14
[24] = test system: MCF7
[25] = test system: MDA-MB-231
[26] = test system: MDA-MB-435
[27] = test system: MOLT-4
[28] = test system: Malme-3M
[29] = test system: NCI-H226
[30] = test system: NCI-H23
[31] = test system: NCI-H460
[32] = test system: NCI-H522
[33] = test system: NCI/ADR-RES
[34] = test system: OVCAR-3
[35] = test system: OVCAR-4
[36] = test system: OVCAR-5
[37] = test system: OVCAR-8
[38] = test system: PC-3
[39] = test system: RPMI-8226
[40] = test system: RXF 393
[41] = test system: SF-268
[42] = test system: SF-295
[43] = test system: SF-539
[44] = test system: SK-MEL-28
[45] = test system: SK-MEL-2
[46] = test system: SK-MEL-5
[47] = test system: SK-OV-3
[48] = test system: SN12C
[49] = test system: SNB-19
[50] = test system: SNB-75
[51] = test system: SR
[52] = test system: SW-620
[53] = test system: T47D
[54] = test system: TK-10
[55] = test system: U-251
[56] = test system: UACC-257
[57] = test system: UACC-62
[58] = test system: UO-31

Cc1ccc(Nc2nc(=S)[nH]c3[nH]ncc23)cc1
GI50 [1]: > 100 µM (inactive)
GI50 [2]: 37 µM (inactive)
GI50 [3]: 61.2 µM (inactive)
GI50 [4]: 48.4 µM (inactive)
GI50 [5]: > 100 µM (inactive)
GI50 [6]: 58.1 µM (inactive)
GI50 [7]: 1.39 µM (inactive)
GI50 [8]: 39.5 µM (inactive)
GI50 [9]: 85.5 µM (inactive)
GI50 [10]: > 100 µM (inactive)
GI50 [11]: 77.3 µM (inactive)
GI50 [12]: 91.2 µM (inactive)
GI50 [13]: 47.6 µM
GI50 [14]: 48.8 µM (inactive)
GI50 [15]: > 100 µM (inactive)
GI50 [16]: > 100 µM (inactive)
GI50 [17]: 42.5 µM (inactive)
GI50 [18]: 77.1 µM (inactive)
GI50 [19]: 30.1 µM (inactive)
GI50 [20]: 49 µM (inactive)
GI50 [21]: 31 µM (inactive)
GI50 [22]: 37.5 µM (inactive)
GI50 [23]: > 100 µM (inactive)
GI50 [24]: 37.3 µM (inactive)
GI50 [25]: > 100 µM (inactive)
GI50 [26]: 39.8 µM (inactive)
GI50 [27]: > 100 µM (inactive)
GI50 [28]: > 100 µM (inactive)
GI50 [29]: > 100 µM (inactive)
GI50 [30]: 59.7 µM (inactive)
GI50 [31]: 64.6 µM (inactive)
GI50 [32]: 32.2 µM (inactive)
GI50 [33]: > 100 µM (inactive)
GI50 [34]: 50.4 µM (inactive)
GI50 [35]: 90.4 µM (inactive)
GI50 [36]: > 100 µM (inactive)
GI50 [37]: > 100 µM (inactive)
GI50 [38]: 51.2 µM (inactive)
GI50 [39]: 24 µM (inactive)
GI50 [40]: > 100 µM (inactive)
GI50 [41]: > 100 µM (inactive)
GI50 [42]: 71.3 µM (inactive)
GI50 [43]: 65.8 µM (inactive)
GI50 [44]: 48.3 µM (inactive)
GI50 [45]: 82.4 µM (inactive)
GI50 [46]: 37.6 µM (inactive)
GI50 [47]: > 100 µM (inactive)
GI50 [48]: 71.8 µM (inactive)
GI50 [49]: > 100 µM (inactive)
GI50 [50]: > 100 µM (inactive)
GI50 [51]: 36.1 µM (inactive)
GI50 [52]: > 100 µM (inactive)
GI50 [53]: 66.1 µM (inactive)
GI50 [54]: 81.1 µM (inactive)
GI50 [55]: 64.7 µM (inactive)
GI50 [56]: 84.5 µM (inactive)
GI50 [57]: 37.7 µM (inactive)
GI50 [58]: 78 µM (inactive)

CO/C(=N\N=C(/c1ccccc1)C(F)(F)F)c1ccncc1
GI50 [2]: 87.5 µM (inactive)
GI50 [5]: 31.8 µM (inactive)
GI50 [6]: 45 µM (inactive)
GI50 [7]: 17.4 µM (inactive)
GI50 [8]: 28.7 µM (inactive)
GI50 [9]: 44.5 µM (inactive)
GI50 [12]: 28.3 µM (inactive)
GI50 [13]: 27.5 µM
GI50 [14]: > 100 µM (inactive)
GI50 [15]: 46.6 µM (inactive)
GI50 [16]: 53.2 µM (inactive)
GI50 [17]: 42.8 µM (inactive)
GI50 [18]: 49.2 µM (inactive)
GI50 [19]: 63.2 µM (inactive)
GI50 [20]: 6.44 µM (inactive)
GI50 [21]: 43.7 µM (inactive)
GI50 [23]: 52.6 µM (inactive)
GI50 [24]: 38.6 µM (inactive)
GI50 [25]: 39.3 µM (inactive)
GI50 [26]: 18.8 µM (inactive)
GI50 [27]: 19.1 µM (inactive)
GI50 [28]: 72.8 µM (inactive)
GI50 [29]: 17.2 µM (inactive)
GI50 [30]: 36.2 µM (inactive)
GI50 [31]: 35.8 µM (inactive)
GI50 [32]: 26.6 µM (inactive)
GI50 [33]: 20.3 µM (inactive)
GI50 [34]: 37.8 µM (inactive)
GI50 [35]: 80.7 µM (inactive)
GI50 [36]: > 100 µM (inactive)
GI50 [37]: 69.5 µM (inactive)
GI50 [38]: 26.1 µM (inactive)
GI50 [39]: 27.6 µM (inactive)
GI50 [40]: 16.3 µM (inactive)
GI50 [42]: 48.6 µM (inactive)
GI50 [44]: 57.7 µM (inactive)
GI50 [45]: 25 µM (inactive)
GI50 [46]: 21.8 µM (inactive)
GI50 [47]: 46.3 µM (inactive)
GI50 [48]: 66.8 µM (inactive)
GI50 [49]: > 100 µM (inactive)
GI50 [50]: 34.9 µM (inactive)
GI50 [51]: 54.6 µM (inactive)
GI50 [53]: 35.2 µM (inactive)
GI50 [55]: 48.4 µM (inactive)
GI50 [57]: 27.5 µM (inactive)
GI50 [58]: 38.6 µM (inactive)

CNC(=O)OCC1C2=C(C(=O)C(C)=C(N)C2=O)N2CC3C(N3C)C12OC (stereo not drawn)
GI50 [1]: 4.02 µM (inactive)
GI50 [2]: 15.3 µM (inactive)
GI50 [3]: 1.83 µM (inactive)
GI50 [4]: 3.8 µM (inactive)
GI50 [5]: 31.8 µM (inactive)
GI50 [6]: 3.16 µM (inactive)
GI50 [7]: 3.76 µM (inactive)
GI50 [8]: 13.6 µM (inactive)
GI50 [9]: 2.47 µM (inactive)
GI50 [10]: > 100 µM (inactive)
GI50 [11]: 12.4 µM (inactive)
GI50 [12]: 10.9 µM (inactive)
GI50 [13]: 12.1 µM
GI50 [14]: 1.92 µM (inactive)
GI50 [15]: 14.4 µM (inactive)
GI50 [16]: 23.7 µM (inactive)
GI50 [17]: 10.3 µM (inactive)
GI50 [19]: 12.4 µM (inactive)
GI50 [20]: 25.6 µM (inactive)
GI50 [22]: 9.91 µM (inactive)
GI50 [23]: 7.24 µM (inactive)
GI50 [24]: 3.29 µM (inactive)
GI50 [25]: > 100 µM (inactive)
GI50 [26]: 38.1 µM (inactive)
GI50 [27]: 3.29 µM (inactive)
GI50 [28]: 2.38 µM (inactive)
GI50 [29]: 32.1 µM (inactive)
GI50 [30]: 1.53 µM (inactive)
GI50 [31]: 0.0867 µM (active)
GI50 [32]: 3.19 µM (inactive)
GI50 [33]: 32.5 µM (inactive)
GI50 [34]: 26.5 µM (inactive)
GI50 [35]: 15.7 µM (inactive)
GI50 [36]: 72.8 µM (inactive)
GI50 [37]: 11.4 µM (inactive)
GI50 [38]: 13.9 µM (inactive)
GI50 [39]: 23.8 µM (inactive)
GI50 [40]: 21.3 µM (inactive)
GI50 [42]: 5.02 µM (inactive)
GI50 [43]: 10.1 µM (inactive)
GI50 [44]: 47.9 µM (inactive)
GI50 [45]: 26.1 µM (inactive)
GI50 [46]: 11.5 µM (inactive)
GI50 [47]: 28.9 µM (inactive)
GI50 [48]: 5.61 µM (inactive)
GI50 [49]: 3.3 µM (inactive)
GI50 [51]: 0.867 µM (active)
GI50 [52]: 10.8 µM (inactive)
GI50 [53]: 21.9 µM (inactive)
GI50 [54]: 27.7 µM (inactive)
GI50 [55]: 14.1 µM (inactive)
GI50 [56]: 21.4 µM (inactive)
GI50 [57]: 9.93 µM (inactive)
